We go through 4 compounds from patent US20260007634A1, “PHARMACEUTICAL COMPOSITIONS FOR THE TREATMENT OF ALLERGIC DISEASES” (KINKI UNIVERSITY, priority 2022, published 2026).

Assay type in all cases: in vivo, mouse
One experiment relates to BAFF. Kind of experiment: Serum BAFF ELISA, bronchial asthma mice. The conditions noted are these: OVA bronchial asthma; serum day 28; oral 10 mg/kg (dexamethasone 2 mg/kg); control 97, vehicle 1319. The procedure:
(§1) A 0.2 mL dose of 50 μg ovalbumin (OVA) and 2 mg Alum mixture was administered to 6-week-old female Balb/c mice (Japan SLC Inc.) (day 0 of the example). Alum was used as an adjuvant. Seven days later and 14 days later, the Balb/c mice were immunized again with 0.2 mL injections of the above mixture. Starting on day 20, mice were orally treated with 10 mg/kg of norathyriol, 10 mg/kg of mangiferin 8a, 10 mg/kg of tofacitinib (JAK inhibitor), 2 mg/kg of dexamethasone (steroid) and 10 mg/kg of olopatadine (antihistamine) daily for 8 consecutive days. Starting on day 21, 400 μg OVA was administered intranasally, and cough was measured on day 27. […]
Serum was collected from day 28 mice in Examples 14, and BAFF production was measured by enzyme-linked immunosorbent assay (ELISA). This assay was performed using a mouse BAFF ELISA kit (R&D).
A general note: ELISA stands for enzyme-linked immunosorbent assay.

For a further experiment, the system named is IL-5. Kind of experiment: Serum IL-5 ELISA, cedar pollinosis mice. The conditions noted are these: serum day 28, oral 10 mg/kg (dexamethasone 2 mg/kg), control 77, vehicle 708. The procedure: (§2) A 0.2 mL dose of 100 μg cedar pollen and 1 mg Alum mixture was administered to 6-week-old female Balb/c mice (Japan SLC Inc.) (day 0 of the example). Alum was used as an adjuvant. Seven days later and 14 days later, the Balb/c mice were immunized again with 0.2 mL injections of the above mixture. Starting on day 20, mice were orally treated with 10 mg/kg of norathyriol, 10 mg/kg of mangiferin 8a, 10 mg/kg of tofacitinib (JAK inhibitor), 2 mg/kg of dexamethasone (steroid) and 10 mg/kg of olopatadine (antihistamine) daily for 8 consecutive days. Starting on day 21, 500 μg cedar pollen was administered intranasally, and nose-scratching behavior was measured on day 27. Note that tofacitinib, dexamethasone, and olopatadine are currently in clinical use in cedar pollinosis and were used as control drugs in this example.
Serum was collected from day 28 mice in Examples 28 and 29, and IL-5 production was measured by enzyme-linked immunosorbent assay (ELISA). This assay was performed using a mouse IL-5 ELISA kit (R&D).

Another experiment has as its system IL-4. Nature of the experiment: Serum IL-4 ELISA, cedar pollinosis mice. The conditions noted are these: serum day 28, oral 10 mg/kg (dexamethasone 2 mg/kg), control 55, vehicle 374. How it is done: as §1, with “of 100” for “of 50”, “μg cedar pollen” for “μg ovalbumin (OVA)”, “and 1” for “and 2”, “21, 500” for “21, 400”, “μg cedar pollen” for “μg OVA”, “and nose-scratching behavior” for “and cough”
Serum was collected from day 28 mice in Examples 28 and 29, and IL-4 production was measured by enzyme-linked immunosorbent assay (ELISA). This assay was performed using a mouse IL-4 ELISA kit (R&D).

The subject of the next experiment is OVA-IgE antibody. Kind of experiment: Serum OVA-IgE antibody ELISA, food allergy mice. The conditions noted are these: serum day 28, oral 10 mg/kg (dexamethasone 2 mg/kg), control 1.5, vehicle 74. How it is done:
A 0.2 mL dose of 10 μg ovalbumin (OVA) and 1 mg Alum mixture was administered to 6-week-old female Balb/c mice (Japan SLC Inc.) (day 0 of the example). Alum was used as an adjuvant. Seven days later, the Balb/c mice were immunized again with a 0.2 mL injection of the above mixture. Starting on day 14, mice were orally treated with 10 mg/kg of norathyriol, 10 mg/kg of mangiferin 8a, 10 mg/kg of tofacitinib (JAK inhibitor), 2 mg/kg of dexamethasone (steroid) and 10 mg/kg of olopatadine (antihistamine) daily for 14 consecutive days. Starting on day 14, 10 mg OVA was administered orally every other day […], and the frequency of diarrhea was measured after the final administration on day 28. Note that tofacitinib, dexamethasone, and olopatadine are currently in clinical use in food allergy and were used as control drugs in this example.
Serum was collected from day 28 mice in Examples 21, and OVA-IgE antibody production was measured by enzyme-linked immunosorbent assay (ELISA). This assay was performed using a mouse OVA-IgE antibody ELISAkit (FUJIFILM Wako).

The subject of experiment [1] is Balb/c mice with cedar pollinosis. Nature of the experiment: Nose scratching behavior, cedar pollinosis model mice. The conditions noted are these: oral daily 8 days from day 20, 10 mg/kg (dexamethasone 2 mg/kg), measured day 27, vs vehicle group. How it is done: as §2
The group that was just immunized with cedar pollen is called the subject group, the one that received norathyriol is called the norathyriol group, the one that received mangiferin 8a is called the mangiferin 8a group, the one that received tofacitinib is called the tofacitinib group, the one that received dexamethasone is called the dexamethasone group, and the one that received olopatadine is called the olopatadine group. Each group consisted of five animals.

The subject of experiment [2] is Balb/c mice with ovalbumin-induced bronchial asthma. Nature of the experiment: Cough, ovalbumin-induced bronchial asthma mice. The conditions noted are these: OVA bronchial asthma; oral daily 8 days from day 20, 10 mg/kg (dexamethasone 2 mg/kg); measured day 27; vs vehicle group. The procedure:
A 0.2 mL dose of 50 μg ovalbumin (OVA) and 2 mg Alum mixture was administered to 6-week-old female Balb/c mice (Japan SLC Inc.) (day 0 of the example). Alum was used as an adjuvant. Seven days later and 14 days later, the Balb/c mice were immunized again with 0.2 mL injections of the above mixture. Starting on day 20, mice were orally treated with 10 mg/kg of norathyriol, 10 mg/kg of mangiferin 8a, 10 mg/kg of tofacitinib (JAK inhibitor), 2 mg/kg of dexamethasone (steroid) and 10 mg/kg of olopatadine (antihistamine) daily for 8 consecutive days. Starting on day 21, 400 μg OVA was administered intranasally, and cough was measured on day 27. Note that tofacitinib, dexamethasone, and olopatadine are currently in clinical use in allergic rhinitis and were used as control drugs in this example.
The group that was just immunized with OVA is called the subject group, the one that received norathyriol is called the norathyriol group, the one that received mangiferin 8a is called the mangiferin 8a group, the one that received tofacitinib is called the tofacitinib group, the one that received dexamethasone is called the dexamethasone group, and the one that received olopatadine is called the olopatadine group. Each group consisted of five animals.

As for `C[C@@H]1C[C@H]2[C@@H]3CCC4=CC(=O)C=C[C@]4(C)[C@@]3(F)[C@@H](O)C[C@]2(C)[C@@]1(O)C(=O)CO` [dexamethasone], the “amount of BAFF” value in the experiment with BAFF came to 321 pg/mL. For the same compound, in the experiment with IL-5, the “amount of IL-5” value is reported as 182 pg/mL. For the same compound, in the experiment on IL-4, the “amount of IL-4” value was 78 pg/mL. Further, the “amount of OVA-IgE antibody” value in the experiment with OVA-IgE antibody came to 21 U/mL.

On to `O=c1c2cc(O)c(O)cc2oc2cc(O)cc(O)c12` [norathyriol, 1,3,6,7-tetrahydroxyxanthone], for which, in experiment [1], the “number of nose scratches” value is reported as “significantly decreased the number of nose scratches”. The “amount of BAFF” value with BAFF came to 649 pg/mL. In the experiment with IL-5, the “amount of IL-5” value is given as 307 pg/mL. Also, the “amount of IL-4” value with IL-4 is listed as 111 pg/mL. Moreover, the “amount of OVA-IgE antibody” value in the experiment with OVA-IgE antibody turned out to be 45 U/mL. Moreover, in experiment [2], the number of coughs result is given as “significantly decreased the number of coughs”.

Consider `CN(C)CC/C=C1/c2ccccc2COc2ccc(CC(=O)O)cc21` [olopatadine], for which the “number of nose scratches” value in experiment [1] was “significantly decreased the number of nose scratches”. In the experiment on BAFF, the “amount of BAFF” value was found to be 1304 pg/mL. Moreover, the “amount of IL-5” value in the experiment on IL-5 was 438 pg/mL. In the experiment with IL-4, the “amount of IL-4” value was 263 pg/mL. Besides, the “amount of OVA-IgE antibody” value in the experiment on OVA-IgE antibody worked out at 68 U/mL. The number of coughs entry in experiment [2] is “significantly decreased the number of coughs”.

As for `C[C@@H]1CCN(C(=O)CC#N)C[C@@H]1N(C)c1ncnc2[nH]ccc12` [tofacitinib], in experiment [1], the “number of nose scratches” value was “significantly decreased the number of nose scratches”. In addition, in the experiment on BAFF, the “amount of BAFF” value is on record as 902 pg/mL. Moreover, the “amount of IL-5” value with IL-5 is 428 pg/mL. Further, the “amount of IL-4” value with IL-4 is 213 pg/mL. Also, the “amount of OVA-IgE antibody” value in the experiment on OVA-IgE antibody was determined as 61 U/mL. For the same compound, in experiment [2], the number of coughs result is given as “significantly decreased the number of coughs”.
